From patent publication US12454534B2, “Pyrrolo[2,3-b]pyrazines as HPK1 inhibitor and the use thereof” (BEIGENE, LTD., priority 2019, dated 2025) come the findings set out here.

Assay [1] concerns the target T1, HPK1 kinase (aa1-346, Life Technologies) (Homo sapiens, UniProt Q92918).
T1 construct: HPK1 kinase (aa1-346, Life Technologies); purchased Life Technologies
T1 sequence (Q92918 1-346): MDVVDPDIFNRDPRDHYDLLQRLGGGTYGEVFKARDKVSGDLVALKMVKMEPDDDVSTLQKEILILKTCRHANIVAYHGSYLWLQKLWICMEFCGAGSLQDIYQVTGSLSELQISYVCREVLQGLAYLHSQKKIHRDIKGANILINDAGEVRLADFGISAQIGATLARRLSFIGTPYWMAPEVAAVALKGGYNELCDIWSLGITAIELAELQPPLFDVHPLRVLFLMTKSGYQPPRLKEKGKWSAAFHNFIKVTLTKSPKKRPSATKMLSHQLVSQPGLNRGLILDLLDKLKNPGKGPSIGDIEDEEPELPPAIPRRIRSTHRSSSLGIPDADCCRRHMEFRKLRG
Briefly: HPK1 Kinase Activity Assay at 1 mM ATP (TR-FRET). The conditions noted are these: HPK1 40 nM, read-out: Enzymatic activity IC50. It is filed as biochemical. Summed up: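 HPK1 (aa1-346, 40 nM) pre-incubated 60 min at room temperature with compound (0-10 μM), then reacted 120 min with 1 mM ATP and 0.5 μM STK1 substrate in HEPES pH 7.0 with MgCl2. Phosphorylation read by TR-FRET (665/620 nm); IC50 from four-parameter logistic fit.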
For orientation: TR-FRET usually uses a lanthanide donor and a delayed reading to cut background.

A further assay has as its system HEK293 cells. Briefly: HEK293 cell viability assay (CellTiter-Glo). In kind it is cell-based. The conditions noted are these: Homo sapiens, HEK293, 72 h, 3-day exposure, 0 to 10 μM. On the procedure: Cytotoxicity on HEK293 Cells Proliferation (HEK293 Cell Viability Assay)
HEK293 cell line were used in this study. Cell lines were maintained in DMEM (Dulbecco's Modified Eagle Medium) supplemented with 10% fetal bovine serum (Thermo Fisher), 50 units/mL penicillin and streptomycin (Thermo Fisher) and kept at 37° C. in a humidified atmosphere containing 5% CO2 in air. Cell lines were reinstated from frozen stocks that were laid down within 50 passages from the original cells purchased. The growth-inhibitory activity of compounds in HEK293 cells was determined using CellTiter-Glo luminescent cell viability assay (Promega). 3000 cells per well were seeded into a 96-well plate to ensure logarithmic growth for 3 days treatment period. Cells were treated with a 10-point dilution series. The final compound concentration was from 0 to 10 μM. Following a 3-day exposure to the test compounds, 30 μL of CellTiter-Glo reagent was added into 100 μL cell culture medium per well. Mixture was mixed on an orbital shaker for 2 minutes to allow cell lysis, followed by 10 minutes of incubation at room temperature to allow development and stabilization of luminescent signal, which corresponded to the quantity of ATP and thus the quantity of metabolically active cells. Luminescent signal was measured using PHERAstar FS reader (BMG Labtech). IC50 values for cell viability were determined with Dotmatics.

pIC50: −log10 of the molar value.

Broadly, the pIC50 is the IC50 on a negative log10 scale, so that one unit is a factor of ten.

`Cc1cc(-c2c[nH]c3ncc(-c4cc(C)c5c(c4)CN(C)CC5)nc23)ccc1C(=O)N1CC2(COC2)C1` [Example 16, (4-(2-(2,5-dimethyl-1,2,3,4-tetrahydroisoquinolin-7-yl)-5H-pyrrolo[2,3-b]pyrazin-7-yl)-2-methylphenyl) (2-oxa-6-azaspiro[3.3]heptan-6-yl)methanone]: the negative logarithm of the IC50 (pIC50) in assay [1] is 7.06; in the assay on HEK293 cells it was under 5.00.

Regarding `COc1cc(-c2cnc3[nH]cc(-c4ccc(C(=O)N(C)C[C@H](C)O)cc4)c3n2)cc2c1CN(C)CC2` [Example 3, (S)—N-(2-hydroxypropyl)-4-(2-(8-methoxy-2-methyl-1,2,3,4-tetrahydroisoquinolin-6-yl)-5H-pyrrolo[2,3-b]pyrazin-7-yl)-N-methylbenzamide], the negative logarithm of the IC50 (pIC50) in assay [1] was 7.92; with HEK293 cells, 5.90.

Consider `Cc1cc(-c2cnc3[nH]cc(-c4ccc(C(=O)N(C)CC(C)(C)O)cc4)c3n2)cc2c1CCN(C)C2` [Example 20, 4-(2-(2,5-dimethyl-1,2,3,4-tetrahydroisoquinolin-7-yl)-5H-pyrrolo[2,3-b]pyrazin-7-yl)-N-(2-hydroxy-2-methylpropyl)-N-methylbenzamide], for which the negative-log IC50 (pIC50) was 7.19 in assay [1] and 5.41 with HEK293 cells.
